Data reported in patent US12668600B2 (Kumquat Biosciences Inc., priority 2023, dated 2026).

Key:
Type in all cases: biochemical
[1] = molecular target: T1, KRAS WT (Homo sapiens, UniProt P01116); assay: HTRF KRAS-SOS1 interaction assay, wildtype KRAS; conditions: binned ≤2 μM / >2 μM, read-out: Inhibition of KRAS WT (IC50)
T1 construct: made in house; host or cells: E. coli, e.g. BL21 (DE3)
Excerpt: (§1) This assay can be also used to assess a selective inhibition or reduction of signaling output of a mutant Ras protein relative to a wildtype, or relative to a different mutant Ras protein. For example, the equilibrium interaction of wildtype KRAS or K-Ras mutant (e.g., wildtype or a mutant thereof) with SOS1 (e.g., hSOS1) can be assessed as a proxy or an indication for the ability of a subject compound to bind and inhibit Ras protein. The HTRF assay detects from (i) a fluorescence resonance energy transfer (FRET) donor (e.g., antiGST-Europium) that is bound to GST-tagged K-Ras mutant to (ii) a FRET acceptor (e.g., anti-6His-XL665) bound to a His-tagged hSOS1.
(§2) The assay buffer can contain ˜5 mM HEPES pH 7.4, ˜150 mM NaCl, ˜1 mM DTT, 0.05% BSA and 0.0025% (v/v) Igepal. A Ras working solution is prepared in an assay buffer containing typically a suitable amount of the protein construct (e.g., GST-tagged K-Ras mutant) and the FRET donor (e.g., antiGST-Eu (K) from Cisbio, France). A SOS1 working solution is prepared in an assay buffer containing suitable amount of the protein construct (e.g., His-hSOS1) and the FRET acceptor (e.g., anti-6His-XL665 from Cisbio, France). A suitable amount of the protein construct will depend on the range of activity or range of IC50 values being detected or under investigation. For detecting an IC50 within a range of 500 nM, the protein constructs of the same range of molarity can be utilized.
(§3) A fixed volume of DMSO with or without test compound is transferred into a 384-well plate. Ras working solution is added to all wells of the test plate. SOS1 working solution is added to all wells except for those that are subsequently filled with inhibitor control solution. Upon incubation for about 10 minutes or longer, the fluorescence is measured with a M1000Pro plate reader (Tecan) using HTRF detection (excitation 337 nm, emission 1:620 nm, emission 2:665 nm). Compounds are tested in duplicate at different concentrations (for example, 10 μM, 2.5 μM, 0.63 μM, 0.16 μM, 0.04 μM, 0.01 μM test compound). The ratiometric data (i.e., emission 2 divided by emission 1) is used to calculate IC50 values against Ras using GraphPad Prism (GraphPad software). Signaling output measured in terms of IC50 values can be obtained and a ratio of IC50 against one mutant relative to another mutant can be calculated.

[2] = molecular target: T2, KRAS G12V (Homo sapiens, UniProt P01116, G12V); assay: HTRF KRAS-SOS1 interaction assay, KRAS G12V; conditions: binned ≤2 μM / >2 μM, read-out: Inhibition of KRAS G12V (IC50)
T2 construct: made in house; host or cells: E. coli, e.g. BL21 (DE3)
T2 sequence (P01116 1-188 isoform P01116-2 G12V): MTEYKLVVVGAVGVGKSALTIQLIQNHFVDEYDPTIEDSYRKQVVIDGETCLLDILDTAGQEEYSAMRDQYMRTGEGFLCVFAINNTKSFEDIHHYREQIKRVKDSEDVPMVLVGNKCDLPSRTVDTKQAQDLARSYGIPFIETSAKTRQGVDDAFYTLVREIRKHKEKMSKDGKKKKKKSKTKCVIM
Excerpt: as §1, §2, §3

[3] = molecular target: T3, KRAS G12S (Homo sapiens, UniProt P01116, G12S); assay: HTRF KRAS-SOS1 interaction assay, KRAS G12S; conditions: binned ≤2 μM / >2 μM, read-out: Inhibition of KRAS G12S (IC50)
T3 construct: made in house; host or cells: E. coli, e.g. BL21 (DE3)
T3 sequence (P01116 1-188 isoform P01116-2 G12S): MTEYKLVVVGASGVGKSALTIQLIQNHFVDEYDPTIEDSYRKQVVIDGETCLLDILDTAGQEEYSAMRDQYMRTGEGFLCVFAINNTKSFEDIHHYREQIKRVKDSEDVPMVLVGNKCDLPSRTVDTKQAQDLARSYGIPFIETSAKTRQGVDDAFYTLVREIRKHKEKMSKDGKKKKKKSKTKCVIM
Excerpt: as §1, §2, §3

Measured: IC50

T1 sequence (P01116 1-188 isoform P01116-2): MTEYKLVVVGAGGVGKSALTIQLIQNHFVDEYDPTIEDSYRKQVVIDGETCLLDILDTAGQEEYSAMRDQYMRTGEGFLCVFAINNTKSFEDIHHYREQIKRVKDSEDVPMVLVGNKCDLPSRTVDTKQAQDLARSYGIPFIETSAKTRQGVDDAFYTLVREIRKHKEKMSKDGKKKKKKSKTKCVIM

CC(c1cccnc1N)N1c2nc(OC[C@@]34CCCN3C[C@H](F)C4)nc3c(F)c(-c4ccc(F)c5sc(N)c(C#N)c45)c(Cl)c(c23)OC[C@@H]1CC#N (mixture of isomers) [Compound 615, 2-amino-4-((5S)-4-(1-(2-aminopyridin-3-yl)ethyl)-8-chloro-5-(cyanomethyl)-10-fluoro-2-(((2R,7aS)-2-fluorotetrahydro-1H-pyrrolizin-7a (5H)-yl)methoxy)-5,6-dihydro-4H-[1,4]oxazepino[5,6,7-de]quinazolin-9-yl)-7-fluorobenzo[b]thiophene-3-carbonitrile]
≤ 2000 nM: all assays above

N#Cc1c(N)sc2c(F)ccc(-c3c(C(F)(F)F)c4c5c(nc(OC[C@@]67CCCN6C[C@H](F)C7)nc5c3F)N([C@H](CC3CC(F)(F)C3)c3cccnc3N)CCO4)c12 (single isomer, unassigned) [Compound 686]
≤ 2000 nM: all assays above

C[C@H](c1cccnc1N)N1CCOc2c(Cl)c(-c3cccc4sc(N)c(C#N)c34)c(F)c3nc(OC[C@@]45CCCN4C[C@H](F)C5)nc1c23 (single isomer, unassigned) [Compound 668]
≤ 2000 nM: all assays above

CO/N=C1\CN2CCC[C@@]2(COc2nc3c4c(c(Cl)c(-c5ccc(F)c6sc(N)c(C#N)c56)c(F)c4n2)OCCN3[C@H](C)c2cccnc2N)C1 (single isomer, unassigned) [Compound 607]
≤ 2000 nM: all assays above

C#C[C@H]1COc2c(Cl)c(-c3ccc(F)c4sc(N)c(C#N)c34)c(F)c3nc(OC[C@@]45CCCN4C[C@H](F)C5)nc(c23)N1C(C)c1cccnc1N (single isomer, unassigned) [Compound 664]
≤ 2000 nM: all assays above

C[C@H](c1cccnc1N)N1CCOc2c(Cl)c(-c3ccc(F)c4sc(N)c(C#N)c34)c(F)c3nc(OCC4(CN(C)C)CC4)nc1c23 (single isomer, unassigned) [Compound 638]
≤ 2000 nM: all assays above

C=CC[C@H](c1cccnc1N)N1CCOc2c(C(F)(F)F)c(-c3ccc(F)c4sc(N)c(C#N)c34)c(F)c3nc(OC[C@@]45CCCN4C[C@H](F)C5)nc1c23 (single isomer, unassigned) [Compound 616]
≤ 2000 nM: all assays above

N#Cc1c(N)sc2c(F)ccc(-c3c(C(F)(F)F)c4c5c(nc(OC[C@@]67CCCN6C[C@H](F)C7)nc5c3F)N([C@@H](c3cccnc3N)C(F)F)CCO4)c12 (single isomer, unassigned) [Compound 625]
≤ 2000 nM: all assays above

N#Cc1c(N)sc2c(F)ccc(-c3c(C(F)(F)F)c4c5c(nc(OC[C@@]67CCCN6C[C@H](F)C7)nc5c3F)N([C@H](CC3CCOCC3)c3cccnc3N)CCO4)c12 (single isomer, unassigned) [Compound 642]
≤ 2000 nM: all assays above

C[C@H](c1cccnc1N)N1CCOc2c(Cl)c(-c3cccc4sc(N)c(C#N)c34)c(F)c3nc(OC[C@@]45CCCN4CC(=C(F)F)C5)nc1c23 (single isomer, unassigned) [Compound 660]
≤ 2000 nM: all assays above

N#Cc1c(N)sc2c(F)ccc(-c3c(C(F)(F)F)c4c5c(nc(OC[C@@]67CCCN6C[C@H](F)C7)nc5c3F)N([C@H](CCN3CCOCC3)c3cccnc3N)CCO4)c12 (single isomer, unassigned) [Compound 685]
≤ 2000 nM: all assays above

N#Cc1c(N)sc2c(F)ccc(-c3c(Cl)c4c5c(nc(OC[C@@]67CCCN6C[C@H](F)C7)nc5c3F)N(C(/C=C\C(F)(F)F)c3cccnc3N)CCO4)c12 (single isomer, unassigned) [Compound 632]
≤ 2000 nM: all assays above
